The record followed here is the OligoGym collection.

Values joined by “and” are separate entries in the source; they are usually repeats but may differ in a detail not shown here. Identical values can stand only once. After the bases stand the sugars from the 5' end (letter, count) and the backbone: PS all phosphorothioate, else s phosphorothioate and o phosphodiester by linkage. Methylation of C is not given here. e = 2'-O-(2-methoxyethyl) (MOE); k = constrained ethyl (cEt); d = 2'-deoxy (DNA)

For one series, the target named is IRF4. As to conditions: ASO, MM.1R, 0.0625 µM.
For the sequence GGATTGATGTGATAGC (sugars k3 d10 k3, PS), the target mRNA inhibition is 7% and 24%. Consider “TGGGATTATATACTGG (sugars kkddddddddddkeke, PS)”, for which the target mRNA inhibition is 21%.

The same series, now with this note: ASO, MM.1R, 0.074 µM.
As for “TCTATAGTGTTCCAGG (sugars kkdddddddddkdkdk, PS)”, the target mRNA inhibition is 22%.

For the sequence “GCAGTGATGTCAGGTT (sugars e1 k2 d9 k2 e2, PS)”, the target mRNA inhibition was found to be 15%.

Staying with this series, now noted: ASO, MM.1R, 0.222 µM.
Turning to “TCTATAGTGTTCCAGG (sugars kkdddddddddkdkdk, PS)”, the target mRNA inhibition was determined as 28%. With “GCAGTGATGTCAGGTT (sugars e1 k2 d9 k2 e2, PS)”, the target mRNA inhibition came out at 33%.

Staying with this series, now noted: ASO, MM.1R, 0.25 µM.
GGATTGATGTGATAGC (sugars k3 d10 k3, PS): the target mRNA inhibition was 24% and 20%. As to “TGGGATTATATACTGG (sugars kkddddddddddkeke, PS)”, the target mRNA inhibition came out at 43%.

The series is the same for the next values; noted with them: ASO, MM.1R, 0.666 µM.
With “TCTATAGTGTTCCAGG (sugars kkdddddddddkdkdk, PS)”, the target mRNA inhibition came to 45%.

As to “GCAGTGATGTCAGGTT (sugars e1 k2 d9 k2 e2, PS)”, the target mRNA inhibition was found to be 52%.

The series is the same for the next values; noted with them: ASO, MM.1R, 1 µM.
Turning to “GCATTTTATCATCCGA (sugars kdddddddddkekeke, PS)”, the target mRNA inhibition was determined as 23%. For CGGGTCTGAGATGTCC (sugars k3 d10 k3, PS), the target mRNA inhibition was -2%.

For CCCACATAACTCAGGC (sugars k3 d10 k3, PS), the target mRNA inhibition was -16%. TGGGTATTTATAACCG (sugars k3 d10 k3, PS): the target mRNA inhibition was determined as 4%. The same measure, in the same setting: for GACAATGGAGATACTT (sugars k3 d10 k3, PS) the value was 33% and 37%; for CCACAATCAGCAAGTC (sugars k3 d10 k3, PS), 0%; for TTTATGTTAGCCAATT (sugars k3 d10 k3, PS), 25% and 13%.

Take TCAACTTGTGACCCAC (sugars k3 d10 k3, PS): the target mRNA inhibition was determined as 14%. For the sequence “GGGATTATATACTGGT (sugars kkddddddddddkeke, PS)”, the target mRNA inhibition was 46%. Still for that read-out and setting: for “ACTGCTTGAGGTTTTC (sugars kkdddddddddkekek, PS)” the value was 24%; for “TCTATAGTGTTCCAGG (sugars kkdddddddddkdkdk, PS)”, 50%; for “GTTGTAAATGAGTCGG (sugars kkdddddddddekeke, PS)”, 48%. For the sequence “GCAGTGATGTCAGGTT (sugars e1 k2 d9 k2 e2, PS)”, the target mRNA inhibition was determined as 56%. In the case of GGATTGATGTGATAGC (sugars k3 d10 k3, PS), the target mRNA inhibition is 59% and 60%. With “GACAGTGACTTGCATC (sugars kddddddddddkekek, PS)”, the target mRNA inhibition came to 8%. As to “TACTGCTTGAGGTTTT (sugars kkddddddddddkeke, PS)”, the target mRNA inhibition amounted to 11%. The same measure, in the same setting: for “GATTATATACTGGTTG (sugars kkdddddddddkekek, PS)” the value was 45%. In the case of ACCGGTAGAGTGAGAT (sugars k3 d10 k3, PS), the target mRNA inhibition was 16% and 2%. For “TGGGATTATATACTGG (sugars kkddddddddddkeke, PS)”, the target mRNA inhibition is 68% and 60%. Turning to “ACTGCTTGAGGTTTTC (sugars kdddddddddkekeke, PS)”, the target mRNA inhibition stood at 21%. Take “GTGATGTCAGGTTTTC (sugars kddddddddddkekek, PS)”: the target mRNA inhibition stood at 22%.

Consider CCAGTACAGTCCACTC (sugars k3 d10 k3, PS), for which the target mRNA inhibition is -6%. With TCGAATCTGCCCAAAG (sugars k3 d10 k3, PS), the target mRNA inhibition was determined as 23%. On to ATCTGTATCATGCATA (sugars k3 d10 k3, PS), for which the target mRNA inhibition stood at 24%. On to “GATTATATACTGGTTG (sugars kkdddddddddkdkdk, PS)”, for which the target mRNA inhibition was found to be 35%. The same measure, in the same setting: for GAATGGCGCATAGGTC (sugars k3 d10 k3, PS) the value was 26%; for “GTGTGCTTGCCAAGCC (sugars kkddddddddddkeke, PS)”, 37% and 47%. For the sequence “AAGTTCATGTAAAGTC (sugars kdddddddddkekeke, PS)”, the target mRNA inhibition is 14% and 21%. As for “ACCTCAGTTTGTGAAG (sugars e1 k2 d9 k2 e2, PS)”, the target mRNA inhibition was found to be 2%. Regarding “ACAGTGACTTGCATCC (sugars kkdddddddddkdkdk, PS)”, the target mRNA inhibition is 18%.

As to GAAGCTTAGTTATCTG (sugars k3 d10 k3, PS), the target mRNA inhibition was 45% and 39%. Still for that read-out and setting: for TCGCGCAAAGGGCAAG (sugars k3 d10 k3, PS) the value was -4%; for GCGCTCTCTCTGTAAC (sugars k3 d10 k3, PS), -7%. With “GTGTCTAAAGTCCCAT (sugars kdddddddddkekeke, PS)”, the target mRNA inhibition turned out to be 5%.

The same series, now with this note: ASO, MM.1R, 2 µM.
For “TCTATAGTGTTCCAGG (sugars kkdddddddddkdkdk, PS)”, the target mRNA inhibition was found to be 72%. As for “GCAGTGATGTCAGGTT (sugars e1 k2 d9 k2 e2, PS)”, the target mRNA inhibition was 75%.

The same series, now with this note: ASO, MM.1R, 4 µM.
Turning to GGATTGATGTGATAGC (sugars k3 d10 k3, PS), the target mRNA inhibition amounted to 88%.

As for “TGGGATTATATACTGG (sugars kkddddddddddkeke, PS)”, the target mRNA inhibition amounted to 83%.

The series is the same for the next values; noted with them: ASO, SK-MEL-28, 4 µM.
As for GCCCAAAGGCTCCCGA (sugars k3 d10 k3, PS), the target mRNA inhibition was 11%. For the sequence TTGGCCTGCCGGCCTG (sugars k3 d10 k3, PS), the target mRNA inhibition was found to be 4%.

Regarding TGCCGTGTCAGGGTCG (sugars k3 d10 k3, PS), the target mRNA inhibition amounted to 11%. Consider CCTGAGAGTAAACTTG (sugars k3 d10 k3, PS), for which the target mRNA inhibition turned out to be 18%. With GCCGAAGCATTTTATC (sugars k3 d10 k3, PS), the target mRNA inhibition came out at 29%. Take TTATTAGACTGACAGC (sugars k3 d10 k3, PS): the target mRNA inhibition was found to be 37%. Take ATGGCGGATAGATCTG (sugars k3 d10 k3, PS): the target mRNA inhibition worked out at 57%. On to CATAACTCAGGCAAGG (sugars k3 d10 k3, PS), for which the target mRNA inhibition turned out to be 36%. In the case of CTGGCATCGAGACGGG (sugars k3 d10 k3, PS), the target mRNA inhibition is 47%. Take GTCAAACCCTACTGGG (sugars k3 d10 k3, PS): the target mRNA inhibition turned out to be 31%. With AACCACAAGCAGTGAT (sugars k3 d10 k3, PS), the target mRNA inhibition came out at 17%. On to GGGTAAGCACTGAGGC (sugars k3 d10 k3, PS), for which the target mRNA inhibition is 61%. On to GATATTAGAGACTGTA (sugars k3 d10 k3, PS), for which the target mRNA inhibition was 51%. As for GAGGTTCGCTGAATTG (sugars k3 d10 k3, PS), the target mRNA inhibition was determined as 30%. As for CCAGAGGACCACGCCC (sugars k3 d10 k3, PS), the target mRNA inhibition worked out at 28%. In the case of CACTGTTAAAGCAGCA (sugars k3 d10 k3, PS), the target mRNA inhibition came out at 81%. Take AGCCCAAAGTTACATC (sugars k3 d10 k3, PS): the target mRNA inhibition was determined as 42%. Regarding GGCCACCGACTCTTTT (sugars k3 d10 k3, PS), the target mRNA inhibition is 13%. The same measure, in the same setting: for ACACACCACTATTCGA (sugars k3 d10 k3, PS) the value was 35%; for CCGGAGACCTTGAAGA (sugars k3 d10 k3, PS), 9%. The same measure, in the same setting: for AATGAACGGAAGTTTA (sugars k3 d10 k3, PS) the value was 33%; for AGCAACACGGGAATTT (sugars k3 d10 k3, PS), 57%; for ATCTATAAGATGTATA (sugars k3 d10 k3, PS), -1%.

Regarding CCCATCTGTCTCAGTT (sugars k3 d10 k3, PS), the target mRNA inhibition was determined as 66%.

GTAAAGGAGTGCAGGA (sugars k3 d10 k3, PS): the target mRNA inhibition is 9%. In the case of GTAATAGTAAATATCC (sugars k3 d10 k3, PS), the target mRNA inhibition was 61%. Turning to GCGGATAGATCTGTGG (sugars k3 d10 k3, PS), the target mRNA inhibition worked out at 55%. The same measure, in the same setting: for TCCAAAGCATAGAGTC (sugars k3 d10 k3, PS) the value was 53%; for CACGGGAATTTCCATT (sugars k3 d10 k3, PS), 71%; for GCCGAGATATAAATAG (sugars k3 d10 k3, PS), 40%.

Take GAGGGTCTGGAAACTC (sugars k3 d10 k3, PS): the target mRNA inhibition was -4%. On to GGCAACCTGCATTTGC (sugars k3 d10 k3, PS), for which the target mRNA inhibition is -13%. On the same count and under the same terms, for GTCAACATACACATAG (sugars k3 d10 k3, PS) the value was 58%. For CAAGACAGGTCTCTAC (sugars k3 d10 k3, PS), the target mRNA inhibition was 34%. For GCTCAGCGCAGATGGG (sugars k3 d10 k3, PS), the target mRNA inhibition was -2%. On the same count and under the same terms, for AGACAGAGAGTCCGAC (sugars k3 d10 k3, PS) the value was 7%. As for CTCCAGGGATGGAACA (sugars k3 d10 k3, PS), the target mRNA inhibition amounted to 19%. On the same count and under the same terms, for TCTAGTTTGCCAATTC (sugars k3 d10 k3, PS) the value was 62%. The same measure, in the same setting: for CAGTTTGTGAAGCATC (sugars k3 d10 k3, PS) the value was 78%; for TTCAGAGTCCTGAGAC (sugars k3 d10 k3, PS), 46%. Turning to AGGGAACAGATAGTTA (sugars k3 d10 k3, PS), the target mRNA inhibition came out at 34%. Turning to GCCCAGCAAGAGGCAC (sugars k3 d10 k3, PS), the target mRNA inhibition was 7%. Regarding GAACAATCCTGTACAC (sugars k4 d8 k4, PS), the target mRNA inhibition was found to be 0%.

On to GAGGACCTCGCCTGCG (sugars k3 d10 k3, PS), for which the target mRNA inhibition was -2%.

Consider GCTAGATAGCATTCTT (sugars k3 d10 k3, PS), for which the target mRNA inhibition was 56%. Turning to CGTTCCTTTTCAGAGT (sugars k3 d10 k3, PS), the target mRNA inhibition is 30%. Take CACTGAGGCCTTAATG (sugars k3 d10 k3, PS): the target mRNA inhibition was 34%. Same read-out and setting: for GTCAAAGAGCTTGCAG (sugars k3 d10 k3, PS) the value was 44%; for GTGACTTAATTCTGGG (sugars k3 d10 k3, PS), 51%; for ATGTAGGGATACAGCA (sugars k3 d10 k3, PS), 74%.

With TATGCCATGGACAAGT (sugars k3 d10 k3, PS), the target mRNA inhibition was found to be 19%. In the case of TAGAGGAATGGCGGAT (sugars k3 d10 k3, PS), the target mRNA inhibition came to 45%. Consider GCCTAGGACTAAGGAC (sugars k3 d10 k3, PS), for which the target mRNA inhibition is 33%.

For the sequence CTTATAGCACTCTCCT (sugars k3 d10 k3, PS), the target mRNA inhibition was determined as 33%.

Turning to ATGGCAGTCTACAGAA (sugars k3 d10 k3, PS), the target mRNA inhibition was -2%.
